From US20230331719A1, “Pyrazolopyridine Compounds and Methods of Inhibiting IRE1 Using Same” (OPTIKIRA, LLC, priority 2020, published 2023)

Tests used:
XBP1 = test: Cellular XBP1 splicing assay (NanoLuc luciferase reporter); format: cell-based; details: Homo sapiens; ARPE-19 cells stably expressing XBP1-nano-luciferase; thapsigargin 150 nM, 4 hour incubation
Description: ARPE-19 cells stably expressing XBP1 (a.a. 1-376) with nano-luciferase gene sequence linked so it is in frame when XBP1 is spliced, were cultured in F12 media, 10 % FBS, 0.044% sodium bicarbonate, 150 µg/ml hygromycin B and seeded for assays at 5,000 cells in 384 well plates in culture media without hygromycin B and incubated at 37° C./5% CO2. After overnight incubation test compounds were added to the cell plate in a 10-point ½ log dilution series in duplicate (final DMSO concentration 0.117 %). After further incubation of 30 minutes thapsigargin was added (final concentration 150 nM) and then another 4 hour incubation. A NanoLuc luciferase assay (Promega) was used according to the manufacturer’s instructions to detect the luciferase and luminescence measured on a luminometer (EnVision, PerkinElmer). IC50 values calculated by fitting a sigmoidal curve to percent inhibition of control of compound concentration.

IRE1α RNase = IRE1α RNase (Homo sapiens (Human), UniProt O75460); test: Inhibition of RNase activity of IRE1α; format: biochemical; details: 0.325 nM enzyme, 100 nM substrate, 20 minutes at room temperature
Sequence of IRE1α RNase (O75460 468-977): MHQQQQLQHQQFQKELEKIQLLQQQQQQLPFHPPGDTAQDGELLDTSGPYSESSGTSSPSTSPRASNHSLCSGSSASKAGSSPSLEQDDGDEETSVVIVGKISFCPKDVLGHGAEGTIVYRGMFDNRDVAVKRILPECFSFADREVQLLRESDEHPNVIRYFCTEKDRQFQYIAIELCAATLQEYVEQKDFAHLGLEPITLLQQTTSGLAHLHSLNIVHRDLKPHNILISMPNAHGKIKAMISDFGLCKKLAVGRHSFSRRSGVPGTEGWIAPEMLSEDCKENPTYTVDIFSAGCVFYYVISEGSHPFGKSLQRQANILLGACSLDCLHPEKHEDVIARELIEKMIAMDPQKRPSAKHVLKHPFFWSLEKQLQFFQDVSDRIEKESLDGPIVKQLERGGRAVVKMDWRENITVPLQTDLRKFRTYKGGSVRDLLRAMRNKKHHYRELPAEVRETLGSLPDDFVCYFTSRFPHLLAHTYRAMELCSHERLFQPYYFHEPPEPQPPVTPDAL
Description: The RNase reactions were performed in 384 well black ProxiPlate-384 Plus plates (PERKIN Elmer) using 50 mM Tris assay buffer with 0.5 mM MgCl2, 10 mM KCl, 0.03 % Tween, 2 mM DTT and 1% DMSO. Test compounds were prepared on the day of assay and dispensed using D300 digital dispenser as a 10-point ½ log dilution series in duplicate, normalized to a final DMSO concentration of […]. Test compounds were pre-incubated for 30 min at room temperature with IRE1α kinase (E31-11G from Signal Chem) in 2.5 µL of assay buffer. Then 2.5 µl of assay buffer containing substrate (5′ Alexa Fluor 647 - rCrArUrGrUrC rCrGrCrArGrCrGrCrArUrG - Iowa Black RQ quencher 3′) (SEQ ID NO:1) added, giving a final concentration of enzyme of 0.325 nM and of substrate of 100 nM. After 20 minutes incubation at room temperature the reactions were stopped by added 5 µL of 5 M urea, incubated at room temperature for 10 minutes and fluorescence measured on a plate reader (EnVision, PerkinElmer). IC50 values calculated by fitting a sigmoidal curve to percent inhibition of control versus compound concentration.

IRE1α kinase = IRE1α kinase (Homo sapiens (Human), UniProt O75460); test: Inhibition of kinase activity of IRE1α (ADP-Glo); format: biochemical; details: 5 nM IRE1α kinase, 100 µM ATP, 4 hours at room temperature
Sequence of IRE1α kinase (O75460 468-977): as above
Description: The kinase reactions were performed in 384 well white ProxiPlate-384 Plus plates (PERKIN Elmer 6008280) using 25 mM MOPS assay buffer with 1 mM dithiothreitol, 25 mM MgCl2, 12.5 mM β-glycerophosphate, 5 mM EGTA, and 50 µg/mL BSA. Test compounds were prepared on the day of assay and dispensed using D300 digital dispenser as a 10-point ½ log dilution series in duplicate, normalized to a final DMSO concentration of 3%. Test compounds were pre-incubated for 30 min at room temperature with 10 nM IRE1α kinase (E31-11G from Signal Chem) in 2.5 µL of assay buffer and the reaction started by addition of 2.5 µL of ATP in assay buffer, to give a final ATP concentration of 100 µm and 5 nM IRE1α kinase. After 4 hours incubation at room temperature the reactions were stopped and the kinase activity determined using the ADP-Glo™ reagent from Promega, according to the manufacturer’s instructions. Luminescence was measured on a luminometer (EnVision, PerkinElmer) and IC50 values calculated by fitting a sigmoidal curve to percent inhibition of control versus Log10 of compound concentration.

| IC50 (XBP1) | IC50 (IRE1α RNase) | IC50 (IRE1α kinase) | SMILES |
| --- | --- | --- | --- |
| 17 nM | 15.5 nM | 3.6 nM | COC(C)(C)CN[C@H]1CC[C@H](c2cnc(N)c3c(-c4cc(F)c(NS(=O)(=O)c5ccccc5F)cc4F)nn(C(C)C)c32)CC1 [Compound A13, N-(4-(4-amino-1-isopropyl-7-((1r,4r)-4-((2-methoxy-2-methylpropyl)amino)cyclohexyl)-1H-pyrazolo[4,3-c]pyridin-3-yl)-2,5-difluorophenyl)-2-fluorobenzenesulfonamide] |
| 4.6 nM | 3.3 nM | 1.6 nM | CC(C)n1nc(-c2cc(F)c(NS(=O)(=O)c3cc(Cl)ccc3Cl)cc2F)c2c(N)ncc([C@H]3CC[C@H](N4CCOCC4)CC3)c21 [Compound A10, N-(4-(4-amino-1-isopropyl-7-((1r,4r)-4-morpholinocyclohexyl)-1H-pyrazolo[4,3-c]pyridin-3-yl)-2,5-difluorophenyl)-2,5-dichlorobenzenesulfonamide] |
| 39.3 nM | 17.9 nM | – | CC(C)n1nc(-c2cc(F)c(NS(=O)(=O)c3ccccc3F)cc2F)c2c(N)ncc([C@H]3CC[C@H](NCCOC(F)(F)F)CC3)c21 [Compound A8, N-(4-(4-amino-1-isopropyl-7-((1r,4r)-4-((2-(trifluoromethoxy)ethyl)amino)cyclohexyl)-1H-pyrazolo[4,3-c]pyridin-3-yl)-2,5-difluorophenyl)-2-fluorobenzenesulfonamide] |
| 15 nM | 3.4 nM | – | COCCN[C@H]1CC[C@H](c2cnc(N)c3c(-c4cc(F)c(NS(=O)(=O)c5cc(OC(F)(F)F)ccc5Cl)cc4F)nn(C(C)C)c32)CC1 [Compound A3, N-(4-(4-amino-1-isopropyl-7-((1r,4r)-4-((2-methoxyethyl)amino)cyclohexyl)-1H-pyrazolo[4,3-c]pyridin-3-yl)-2,5-difluorophenyl)-2-chloro-5-(trifluoromethoxy)benzenesulfonamide] |
| 3.3 nM | 2.8 nM | – | COCCN[C@H]1CC[C@H](c2cnc(N)c3c(-c4cc(F)c(NS(=O)(=O)c5cc(C)ccc5Cl)cc4F)nn(C(C)C)c32)CC1 [Compound A4, N-(4-(4-amino-1-isopropyl-7-((1r,4r)-4-((2-methoxyethyl)amino)cyclohexyl)-1H-pyrazolo[4,3-c]pyridin-3-yl)-2,5-difluorophenyl)-2-chloro-5-methylbenzenesulfonamide] |
| 14.5 nM | 2.7 nM | – | COCCN[C@H]1CC[C@H](c2cnc(N)c3c(-c4cc(F)c(NS(=O)(=O)c5cc(OC(F)F)ccc5Cl)cc4F)nn(C(C)C)c32)CC1 [Compound A1, N-(4-(4-amino-1-isopropyl-7-((1r,4r)-4-((2-methoxyethyl)amino)cyclohexyl)-1H-pyrazolo[4,3-c]pyridin-3-yl)-2,5-difluorophenyl)-2-chloro-5-(difluoromethoxy)benzenesulfonamide] |
| 12.2 nM | 4.8 nM | – | [2H]C([2H])([2H])Oc1ccc(F)c(S(=O)(=O)Nc2cc(F)c(-c3nn(C(C)C)c4c3c(N)ncc4[C@H]3CC[C@H](NCCOC)CC3)cc2F)c1 [Compound A2, N-(4-(4-amino-1-isopropyl-7-((1r,4r)-4-((2-methoxyethyl)amino)cyclohexyl)-1H-pyrazolo[4,3-c]pyridin-3-yl)-2,5-difluorophenyl)-2-fluoro-5-(methoxy-d3)benzenesulfonamide] |
| 11.1 nM | – | – | CC(C)n1nc(-c2cc(F)c(NS(=O)(=O)Cc3ccccc3Cl)cc2F)c2c(N)ncc([C@H]3CC[C@H](N4CCOCC4)CC3)c21 [Compound A19, N-(4-(4-amino-1-isopropyl-7-((1r,4r)-4-morpholinocyclohexyl)-1H-pyrazolo[4,3-c]pyridin-3-yl)-2,5-difluorophenyl)-1-(2-chlorophenyl)methanesulfonamide] |
| 6.1 nM | – | – | CCOc1ccc(F)c(S(=O)(=O)Nc2cc(F)c(-c3nn(C(C)C)c4c3c(N)ncc4[C@H]3CC[C@H](NC4CC(F)(F)C4)CC3)cc2F)c1 [Compound A7, N-(4-(4-amino-7-((1r,4r)-4-((3,3-difluorocyclobutyl)amino)cyclohexyl)-1-isopropyl-1H-pyrazolo[4,3-c]pyridin-3-yl)-2,5-difluorophenyl)-5-ethoxy-2-fluorobenzenesulfonamide] |
| – | – | 1.3 nM | Cc1ccc(F)c(S(=O)(=O)Nc2cc(F)c(-c3nn(C(C)C)c4c3c(N)ncc4[C@H]3CC[C@H](NC[C@H](C)F)CC3)cc2F)c1 [Compound A23, N-(4-(4-amino-7-((1S,4r)-4-(((S)-2-fluoropropyl)amino)cyclohexyl)-1-isopropyl-1H-pyrazolo[4,3-c]pyridin-3-yl)-2,5-difluorophenyl)-2-fluoro-5-methylbenzenesulfonamide] |
| 7.5 nM | – | – | CCOc1ccc(F)c(S(=O)(=O)Nc2cc(F)c(-c3nn(C(C)C)c4c3c(N)ncc4[C@H]3CC[C@H](NCC(C)F)CC3)cc2F)c1 (stereo partly shown) [Compound A9, N-(4-(4-amino-7-((1r,4r)-4-((2-fluoropropyl)amino)cyclohexyl)-1-isopropyl-1H-pyrazolo[4,3-c]pyridin-3-yl)-2,5-difluorophenyl)-5-ethoxy-2-fluorobenzenesulfonamide] |
| 6.7 nM | – | – | CCOc1ccc(F)c(S(=O)(=O)Nc2cc(F)c(-c3nn(C(C)C)c4c3c(N)ncc4[C@H]3CC[C@H](NCC(C)(C)OC)CC3)cc2F)c1 [Compound A6, N-(4-(4-amino-1-isopropyl-7-((1r,4r)-4-((2-methoxy-2-methylpropyl)amino)cyclohexyl)-1H-pyrazolo[4,3-c]pyridin-3-yl)-2,5-difluorophenyl)-5-ethoxy-2-fluorobenzenesulfonamide] |
| – | – | 0.893 nM | Cc1ccc(F)c(S(=O)(=O)Nc2cc(F)c(-c3nn(C(C)C)c4c3c(N)ncc4[C@H]3CC[C@H](NC[C@@H](C)F)CC3)cc2F)c1 [Compound A24, N-(4-(4-amino-7-((1R,4r)-4-(((R)-2-fluoropropyl)amino)cyclohexyl)-1-isopropyl-1H-pyrazolo[4,3-c]pyridin-3-yl)-2,5-difluorophenyl)-2-fluoro-5-methylbenzenesulfonamide] |
| 26.9 nM | – | – | CC(C)n1nc(-c2cc(F)c(NS(=O)(=O)c3cc(F)ccc3F)cc2F)c2c(N)ncc([C@H]3CC[C@H](N4CCOCC4)CC3)c21 [Compound A16, N-(4-(4-amino-1-isopropyl-7-((1r,4r)-4-morpholinocyclohexyl)-1H-pyrazolo[4,3-c]pyridin-3-yl)-2,5-difluorophenyl)-2,5-difluorobenzenesulfonamide] |
| 1650 nM | 466 nM | – | CC(C)n1nc(-c2cc(F)c(NS(=O)(=O)c3ccccc3F)cc2F)c2c(N)ncc([C@H]3CC[C@@H](N4CCOCC4)CC3)c21 [Compound A14, N-(4-(4-amino-1-isopropyl-7-((1s,4s)-4-morpholinocyclohexyl)-1H-pyrazolo[4,3-c]pyridin-3-yl)-2,5-difluorophenyl)-2-fluorobenzenesulfonamide] |
| 6.8 nM | 3.1 nM | – | COCCN[C@H]1CC[C@H](c2cnc(N)c3c(-c4cc(F)c(NS(=O)(=O)c5cc(C)ccc5F)cc4F)nn(C(C)C)c32)CC1 [Compound A5, N-(4-(4-amino-1-isopropyl-7-((1r,4r)-4-((2-methoxyethyl)amino)cyclohexyl)-1H-pyrazolo[4,3-c]pyridin-3-yl)-2,5-difluorophenyl)-2-fluoro-5-methylbenzenesulfonamide] |
| 7.2 nM | – | – | CCOc1ccc(F)c(S(=O)(=O)Nc2cc(F)c(-c3nn(C(C)C)c4c3c(N)ncc4[C@H]3CC[C@H](N4CCOCC4)CC3)cc2F)c1 [Compound A15, N-(4-(4-amino-1-isopropyl-7-((1r,4r)-4-morpholinocyclohexyl)-1H-pyrazolo[4,3-c]pyridin-3-yl)-2,5-difluorophenyl)-5-ethoxy-2-fluorobenzenesulfonamide] |
